Results taken from patent publication US8163771B2, “11 β-HSD1 modulators” (Exelixis, Inc., priority 2008, dated 2012).

Molecular target: T1, recombinant human 11 β-HSD1 (Homo sapiens, UniProt P28845)
T1 construct: made in house; host or cells: E. coli
Assay: 11 β-HSD1 SPA Assay (Scintillation Proximity Assay)
Type: biochemical
Method in brief: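 Scintillation proximity read-out of cortisol formed from 40 nM [3H]cortisone by purified recombinant human enzyme (30-100 nM, E. coli) with 1 mM NADPH, pH7.4, 2 hours at room temperature; beads with cortisol antibody and glycyrrhetinic acid stop the reaction, read next day. IC50 derived from inhibition normalised to background and maximal wells.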

T1 sequence (P28845 whole entry): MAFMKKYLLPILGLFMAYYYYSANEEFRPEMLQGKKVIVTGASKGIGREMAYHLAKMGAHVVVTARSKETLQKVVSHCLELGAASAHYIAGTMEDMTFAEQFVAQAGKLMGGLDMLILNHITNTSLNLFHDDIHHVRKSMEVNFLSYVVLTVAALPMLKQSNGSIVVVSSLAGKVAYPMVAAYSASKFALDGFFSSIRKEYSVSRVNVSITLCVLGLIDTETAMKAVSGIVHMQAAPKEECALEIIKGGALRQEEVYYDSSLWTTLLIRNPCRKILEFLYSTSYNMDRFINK

Structure (SMILES) | IC50 [nM]
CC(C)(Oc1ccc(Cl)c(Cl)c1)C(=O)N[C@H]1C[C@H]2CC[C@@H](C1)N2c1ccc(NS(C)(=O)=O)cc1 [Example 329, 2-[(3,4-dichlorophenyl)oxy]-2-methyl-N-(8-{4-[(methylsulfonyl)amino]phenyl}-8-azabicyclo[3.2.1]oct-3-endo-yl)propanamide] | < 200
CC(C)(Oc1ccc(F)cc1Cl)C(=O)N[C@H]1C[C@H]2CC[C@@H](C1)N2c1ccc(-c2nc(C(F)(F)F)n[nH]2)cn1 [Example 330, 2-[(2-chloro-4-fluorophenyl)oxy]-2-methyl-N-(8-{5-[3-(trifluoromethyl)-1H-1,2,4-triazol-5-yl]pyridin-2-yl}-8-azabicyclo[3.2.1]oct-3-endo-yl)propanamide] | < 2000
CC(C)c1cc(Cl)ccc1OC(C)(C)C(=O)N[C@H]1C[C@H]2CC[C@@H](C1)N2c1ccc(C(N)=O)cn1 [Example 331, 6-{3-endo-[(2-{[4-chloro-2-(1-methylethyl)phenyl]oxy}-2-methylpropanoyl)amino]-8-azabicyclo[3.2.1]oct-8-yl}pyridine-3-carboxamide] | < 200
CS(=O)(=O)c1ccc(N2[C@@H]3CC[C@H]2C[C@@H](NC(=O)C2(c4ccc(F)c(Cl)c4)CC2)C3)nc1 [Example 332, 1-(3-chloro-4-fluorophenyl)-N-{8-[5-(methylsulfonyl)pyridin-2-yl]-8-azabicyclo[3.2.1]oct-3-endo-yl}cyclopropanecarboxamide] | < 200
CC(C)(Oc1ccc(Cl)cc1C(F)(F)F)C(=O)N[C@H]1C[C@H]2CC[C@@H](C1)N2c1ccc(NS(C)(=O)=O)cn1 [Example 333, 2-{[4-chloro-2-(trifluoromethyl)phenyl]oxy}-2-methyl-N-(8-{5-[(methylsulfonyl)amino]pyridin-2-yl}-8-azabicyclo[3.2.1]oct-3-endo-yl)propanamide] | < 200
CC(C)(Oc1ccc(Cl)cc1S(C)(=O)=O)C(=O)N[C@H]1C[C@H]2CC[C@@H](C1)N2c1ccc(C(N)=O)cn1 [Example 334, 6-{3-endo-[(2-{[4-chloro-2-(methylsulfonyl)phenyl]oxy}-2-methylpropanoyl)amino]-8-azabicyclo[3.2.1]oct-8-yl}pyridine-3-carboxamide] | < 200
CC(C)(Oc1cc(C(F)(F)F)ccc1F)C(=O)N[C@H]1C[C@H]2CC[C@@H](C1)N2c1ccc(S(C)(=O)=O)cn1 [Example 335, 2-{[2-fluoro-5-(trifluoromethyl)phenyl]oxy}-2-methyl-N-{8-[5-(methylsulfonyl)pyridin-2-yl]-8-azabicyclo[3.2.1]oct-3-endo-yl}propanamide] | < 2000
CC(C)(O)CNC(=O)c1ccc(N2[C@@H]3CC[C@H]2C[C@@H](NC(=O)C(C)(C)Oc2cc(C(C)(C)O)c(Cl)cc2Cl)C3)nc1 [Example 336, 6-[3-endo-({2-[2,4-dichloro-5-(2-hydroxypropan-2-yl)phenoxy]-2-methylpropanoyl}amino)-8-azabicyclo[3.2.1]oct-8-yl]-N-(2-hydroxy-2-methylpropyl)pyridine-3-carboxamide] | < 200
CC(C)(Oc1ccc(Cl)cc1Br)C(=O)N[C@H]1C[C@H]2CC[C@@H](C1)N2c1ccc(C(=O)NCC(F)(F)F)cn1 [Example 337, 6-(3-endo-{[2-(2-bromo-4-chlorophenoxy)-2-methylpropanoyl]amino}-8-azabicyclo[3.2.1]oct-8-yl)-N-(2,2,2-trifluoroethyl)pyridine-3-carboxamide] | < 200
CC(C)(Oc1ccc2ccccc2c1)C(=O)N[C@H]1C[C@H]2CC[C@@H](C1)N2c1ccc(C(=O)NCC(F)(F)F)cn1 [Example 338, 6-(3-endo-{[2-methyl-2-(naphthalen-2-yloxy)propanoyl]amino}-8-azabicyclo[3.2.1]oct-8-yl)-N-(2,2,2-trifluoroethyl)pyridine-3-carboxamide] | < 200
CC(C)(Oc1nccc2ccccc12)C(=O)N[C@H]1C[C@H]2CC[C@@H](C1)N2c1ccc(C(N)=O)cn1 [Example 339, 6-(3-endo-{[2-(isoquinolin-1-yloxy)-2-methylpropanoyl]amino}-8-azabicyclo[3.2.1]oct-8-yl)pyridine-3-carboxamide] | < 200
CC(C)(Oc1ccc(Cl)cc1Cl)C(=O)N[C@H]1C[C@H]2CC[C@@H](C1)N2c1ccc(C(=O)NCCN2CCCC2)cn1 [Example 340, 6-(3-endo-{[2-(2,4-dichlorophenoxy)-2-methylpropanoyl]amino}-8-azabicyclo[3.2.1]oct-8-yl)-N-[2-(pyrrolidin-1-yl)ethyl]pyridine-3-carboxamide] | < 200
CC(C)(Oc1ccc(Cl)cc1Cl)C(=O)N[C@H]1C[C@H]2CC[C@@H](C1)N2c1ccc(C(=O)NCCCn2ccnc2)cn1 [Example 341, 6-(3-endo-{[2-(2,4-dichlorophenoxy)-2-methylpropanoyl]amino}-8-azabicyclo[3.2.1]oct-8-yl)-N-[3-(1h-imidazol-1-yl)propyl]pyridine-3-carboxamide] | < 200
CC(C)(Oc1ccc(Cl)cc1Cl)C(=O)N[C@H]1C[C@H]2CC[C@@H](C1)N2c1ccc(C(=O)NCc2ccncc2)cn1 [Example 342, 6-(3-endo-{[2-(2,4-dichlorophenoxy)-2-methylpropanoyl]amino}-8-azabicyclo[3.2.1]oct-8-yl)-N-(pyridin-4-ylmethyl)pyridine-3-carboxamide] | < 200
CC(C)(Oc1ccc(Cl)cc1C(F)(F)F)C(=O)N[C@H]1C[C@H]2CC[C@@H](C1)N2c1ccc(C(=O)NCC(F)F)cn1 [Example 343, 6-[3-endo-({2-[4-chloro-2-(trifluoromethyl)phenoxy]-2-methylpropanoyl}amino)-8-azabicyclo[3.2.1]oct-8-yl]-N-(2,2-difluoroethyl)pyridine-3-carboxamide] | < 200
CC(C)(Oc1cc(-c2ccccc2)ccc1Cl)C(=O)N[C@H]1C[C@H]2CC[C@@H](C1)N2c1ccc(C(N)=O)cn1 [Example 344, 6-[3-endo-({2-[(4-chlorobiphenyl-3-yl)oxy]-2-methylpropanoyl}amino)-8-azabicyclo[3.2.1]oct-8-yl]pyridine-3-carboxamide] | < 200
CC(C)(Oc1ccc(Cl)cc1C(F)(F)F)C(=O)NC1CC2CCC(C1)N2c1ccc(C(=O)NC2CC2(F)F)cn1 (stereo not drawn) [Example 345, 6-[3-endo-({2-[4-chloro-2-(trifluoromethyl)phenoxy]-2-methylpropanoyl}amino)-8-azabicyclo[3.2.1]oct-8-yl]-N-(2,2-difluorocyclopropyl)pyridine-3-carboxamide] | < 200
CC(C)(Oc1cc(-c2ccc(F)cc2)ccc1Cl)C(=O)N[C@H]1C[C@H]2CC[C@@H](C1)N2c1ccc(C(N)=O)cn1 [Example 346, 6-[3-endo-({2-[(4-chloro-4′-fluorobiphenyl-3-yl)oxy]-2-methylpropanoyl}amino)-8-azabicyclo[3.2.1]oct-8-yl]pyridine-3-carboxamide] | < 200
CC(C)(Oc1ccccc1OC(F)(F)F)C(=O)N[C@H]1C[C@H]2CC[C@@H](C1)N2c1ccc(C(=O)NCC(F)(F)F)cn1 [Example 347, 6-[3-endo-({2-methyl-2-[2-(trifluoromethoxy)phenoxy]propanoyl}amino)-8-azabicyclo[3.2.1]oct-8-yl]-N-(2,2,2-trifluoroethyl)pyridine-3-carboxamide] | < 200
CC(C)(Oc1ccc2ccccc2c1Cl)C(=O)N[C@H]1C[C@H]2CC[C@@H](C1)N2c1ccc(C(=O)NCC(F)(F)F)cn1 [Example 348, 6-[3-endo-({2-[(1-chloronaphthalen-2-yl)oxy]-2-methylpropanoyl}amino)-8-azabicyclo[3.2.1]oct-8-yl]-N-(2,2,2-trifluoroethyl)pyridine-3-carboxamide] | < 200
CC(C)(Oc1ccc(F)cc1Cl)C(=O)NC1CC2CCC(C1)N2c1ccc(C(=O)NC2CC2(F)F)cn1 (stereo not drawn) [Example 349, 6-(3-endo-{[2-(2-chloro-4-fluorophenoxy)-2-methylpropanoyl]amino}-8-azabicyclo[3.2.1]oct-8-yl)-N-(2,2-difluorocyclopropyl)pyridine-3-carboxamide] | < 200
CC(C)(CN1CCCC1)NC(=O)c1ccc(N2[C@@H]3CC[C@H]2C[C@@H](NC(=O)C(C)(C)Oc2ccc(Cl)cc2Cl)C3)nc1 [Example 350, 6-(3-endo-{[2-(2,4-dichlorophenoxy)-2-methylpropanoyl]amino}-8-azabicyclo[3.2.1]oct-8-yl)-N-[2-methyl-1-(pyrrolidin-1-yl)propan-2-yl]pyridine-3-carboxamide] | < 200
CN(C)S(=O)(=O)c1cc(Cl)ccc1OC(C)(C)C(=O)N[C@H]1C[C@H]2CC[C@@H](C1)N2c1ccc(C(=O)NCC(F)(F)F)cn1 [Example 351, 6-[3-endo-({2-[4-chloro-2-(dimethylsulfamoyl)phenoxy]-2-methylpropanoyl}amino)-8-azabicyclo[3.2.1]oct-8-yl]-n-(2,2,2-trifluoroethyl)pyridine-3-carboxamide] | < 200
COCCOc1cc(Cl)ccc1OC(C)(C)C(=O)N[C@H]1C[C@H]2CC[C@@H](C1)N2c1ccc(C(=O)NCC(F)(F)F)cn1 [Example 352, 6-[3-endo-({2-[4-chloro-2-(2-methoxyethoxy)phenoxy]-2-methylpropanoyl}amino)-8-azabicyclo[3.2.1]oct-8-yl]-N-(2,2,2-trifluoroethyl)pyridine-3-carboxamide] | < 200
CC(C)c1cc(Cl)ccc1OC(C)(C)C(=O)N[C@H]1C[C@H]2CC[C@@H](C1)N2c1ccc(C(=O)NCC(F)(F)F)cn1 [Example 353, 6-[3-endo-({2-[4-chloro-2-(propan-2-yl)phenoxy]-2-methylpropanoyl}amino)-8-azabicyclo[3.2.1]oct-8-yl]-N-(2,2,2-trifluoroethyl)pyridine-3-carboxamide] | < 200
CC(C)(Oc1nccc2ccccc12)C(=O)N[C@H]1C[C@H]2CC[C@@H](C1)N2c1ccc(C(=O)NCC(F)(F)F)cn1 [Example 354, 6-(3-endo-{[2-(isoquinolin-1-yloxy)-2-methylpropanoyl]amino}-8-azabicyclo[3.2.1]oct-8-yl)-N-(2,2,2-trifluoroethyl)pyridine-3-carboxamide] | < 200
